Read-outs that look alike come from different tables or passages of the source.
What was measured:
[1] = target: T1, complement C5a receptor 1 (C5aR1) (Homo sapiens, UniProt P21730); assay: β-arrestin recruitment via C5aR1 activation in live CHO-K1 cells (PathHunter), antagonist mode; type: cell-based
T1 construct: β-galactosidase fragment (PathHunter enzyme complementation); host or cells: CHO-K1 (PathHunter CHO-K1 C5aR1 β-arrestin cell line)
T1 sequence (P21730 1-350): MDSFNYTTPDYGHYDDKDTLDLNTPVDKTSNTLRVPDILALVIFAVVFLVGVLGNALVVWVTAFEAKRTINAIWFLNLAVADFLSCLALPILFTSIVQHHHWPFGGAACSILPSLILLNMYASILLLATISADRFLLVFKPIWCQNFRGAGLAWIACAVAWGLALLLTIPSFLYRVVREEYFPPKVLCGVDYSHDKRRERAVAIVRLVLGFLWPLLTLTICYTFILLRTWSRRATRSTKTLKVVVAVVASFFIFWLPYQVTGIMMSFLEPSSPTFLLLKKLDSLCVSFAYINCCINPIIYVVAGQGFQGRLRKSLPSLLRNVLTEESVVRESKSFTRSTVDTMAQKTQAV
How it was run: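 β-arrestin recruitment to C5aR1 in CHO-K1 cells is detected by enzyme-fragment complementation. Antagonism is measured against recombinant hC5a at its EC90; agonism is measured with compound alone. Potencies are grouped into IC50 categories.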

[2] = target: T1, complement C5a receptor 1 (C5aR1); assay: β-arrestin recruitment via C5aR1 activation in live CHO-K1 cells (PathHunter), agonist mode; type: cell-based
Protocol: Exemplary compounds were evaluated for classical GPCR β-arrestin recruitment via complement C5a receptor 1 (C5aR1) activation in live CHO-K1 cells. This cell line expresses two fragments of the […] protein coupled to β-arrestin and C5aR1. Complementation of the two fragments allows for the assessment of both C5aR1 agonism and antagonism. Recombinant hC5a (EC90) was used as the competing natural agonist against disclosed compounds (more information on the expanded protocol and cell line can be found on the manufacturer's website: PathHunter® CHO-K1 C5aR1 β-arrestin cell line, DiscoverX, Catalog No. 93-0557C2). […] IC50 ranges: A: IC50≤500 nM; B: 500 nM<IC50≤5 uM; C: 5 uM<IC50≤100 uM; D: IC50>100 uM.

[3] = antagonist mode, recombinant hC5a (EC90) as competing natural agonist, live CHO-K1 cells, read-out: [Antagonist] B-arrestin2 recruitment: Average IC50

SMILES | IC50 [1, 3] [nM] | [Agonist] B-arrestin2 recruitment: Average EC50 (nM) ([2]; at 10 μM) | IC50 [1] [nM] | [Agonist] B-arrestin2 recruitment: Average EC50 (nM) [2]
Cc1cnc2cc(C3CCN(c4ccc5c(cnn5C)c4)CC3)c(=O)n(Cc3ncccc3C(F)(F)F)c2n1 [compound 181, 3-Methyl-7-(1-(1-methyl-1H-indazol-5-yl)piperidin-4-yl)-5-((3-(trifluoromethyl)pyridin-2-yl)methyl)pyrido[2,3-b]pyrazin-6(5H)-one] | 5000 to 100000 | Non-Active at 10 μM |  | 
Cc1cccc(F)c1N1CCC(c2cc3nccnc3n(Cc3cnc(C(F)(F)F)cn3)c2=O)CC1 [compound 27, 7-(1-(2-Fluoro-6-methylphenyl)piperidin-4-yl)-5-((5-(trifluoromethyl)pyrazin-2-yl)methyl)pyrido[2,3-b]pyrazin-6(5H)-one] |  |  | > 100000 | Non-Active
Cc1cccc(F)c1N1CCC(c2cc3nccnc3n(Cc3ccc(C(F)(F)F)cn3)c2=O)CC1 [compound 15, 7-(1-(2-Fluoro-6-methylphenyl)piperidin-4-yl)-5-((5-(trifluoromethyl)pyridin-2-yl)methyl)pyrido[2,3-b]pyrazin-6(5H)-one] | > 100000 |  |  | Non-Active
COc1ccnc(F)c1[C@H]1CC[C@H](c2cc3ncc(C)nc3n(Cc3ncccc3C(F)(F)F)c2=O)CC1 [compound 189, 7-((1r,4r)-4-(2-Fluoro-4-methoxypyridin-3-yl)cyclohexyl)-3-methyl-5-((3-(trifluoromethyl)pyridin-2-yl)methyl)pyrido[2,3-b]pyrazin-6(5H)-one] | < 500 | Non-Active at 10 μM |  | 
Cc1ccc2cc([C@H]3CC[C@H](c4c(F)cccc4F)CC3)c(=O)n(Cc3ncccc3OC(F)(F)F)c2n1 [compound 246, 3-((1r,4r)-4-(2,6-Difluorophenyl)cyclohexyl)-7-methyl-1-((3-(trifluoromethoxy)pyridin-2-yl)methyl)-1,8-naphthyridin-2(1H)-one] | < 500 | Non-Active at 10 μM |  | 
Cc1cnc2cc(C3CCN(c4cccnc4C(F)(F)F)CC3)c(=O)n(Cc3ncccc3C(F)(F)F)c2n1 [compound 157, 3-Methyl-5-((3-(trifluoromethyl)pyridin-2-yl)methyl)-7-(1-(2-(trifluoromethyl)pyridin-3-yl)piperidin-4-yl)pyrido[2,3-b]pyrazin-6(5H)-one] | 500 to 5000 | Non-Active at 10 μM |  | 
Cc1ccc2cc([C@H]3CC[C@H](c4c(F)cccc4F)CC3)c(=O)n(Cc3ncccc3C(F)(F)F)c2n1 [compound 223, 3-((1r,4r)-4-(2,6-Difluorophenyl)cyclohexyl)-7-methyl-1-((3-(trifluoromethyl)pyridin-2-yl)methyl)-1,8-naphthyridin-2(1H)-one] | < 500 | Non-Active at 10 μM |  | 
Cc1cccc(F)c1N1CCC(c2cc3nccnc3n(Cc3ccccc3F)c2=O)CC1 [compound 35, 7-(1-(2-Fluoro-6-methylphenyl)piperidin-4-yl)-5-(2-fluorobenzyl)pyrido[2,3-b]pyrazin-6(5H)-one] | < 500 |  |  | Non-Active
Cc1ccc2cc([C@H]3CC[C@H](c4cnccc4C(F)(F)F)CC3)c(=O)n(Cc3ncccc3OC(F)(F)F)c2n1 [compound 247, 7-Methyl-1-((3-(trifluoromethoxy)pyridin-2-yl)methyl)-3-((1r,4r)-4-(4-(trifluoromethyl)pyridin-3-yl)cyclohexyl)-1,8-naphthyridin-2(1H)-one] | < 500 | Non-Active at 10 μM |  | 
Cc1cnc2cc([C@H]3CC[C@H](c4cnsc4C)CC3)c(=O)n(Cc3ncccc3C(F)(F)F)c2n1 [compound 249, 3-Methyl-7-((1r,4r)-4-(5-methylisothiazol-4-yl)cyclohexyl)-5-((3-(trifluoromethyl)pyridin-2-yl)methyl)pyrido[2,3-b]pyrazin-6(5H)-one] | < 500 | Non-Active at 10 μM |  | 
Cc1ccc2cc([C@H]3CC[C@H](c4c(F)cccc4F)CC3)c(=O)n(Cc3ncccc3C3CC3)c2n1 [compound 245, 1-((3-Cyclopropylpyridin-2-yl)methyl)-3-((1r,4r)-4-(2,6-difluorophenyl)cyclohexyl)-7-methyl-1,8-naphthyridin-2(1H)-one] | < 500 | Non-Active at 10 μM |  | 
Cc1ccnc(F)c1N1CCC(c2cc3nccnc3n(Cc3ccccc3C(F)(F)F)c2=O)CC1 [compound 31, 7-(1-(2-Fluoro-4-methylpyridin-3-yl)piperidin-4-yl)-5-(2-(trifluoromethyl)benzyl)pyrido[2,3-b]pyrazin-6(5H)-one] | < 500 |  |  | Non-Active
CCc1cnc2c(cc([C@H]3CC[C@H](c4c(C)cccc4F)CC3)c(=O)n2Cc2ncccc2C(F)(F)F)n1 [compound 211, 2-Ethyl-7-((1r,4r)-4-(2-fluoro-6-methylphenyl)cyclohexyl)-5-((3-(trifluoromethyl)pyridin-2-yl)methyl)pyrido[2,3-b]pyrazin-6(5H)-one] | < 500 | Non-Active at 10 μM |  | 
Cc1cccc(F)c1N1CCC(c2c(C)c3nccnc3n(Cc3nccnc3OCC(F)(F)F)c2=O)CC1 [compound 4, 7-(1-(2-Fluoro-6-methylphenyl)piperidin-4-yl)-8-methyl-5-((3-(2,2,2-trifluoroethoxy)pyrazin-2-yl)methyl)pyrido[2,3-b]pyrazin-6(5H)-one] | 500 to 5000 |  |  | Non-Active
O=c1c(C2CCN(c3cnccc3C(F)(F)F)CC2)cc2nccnc2n1Cc1ncccc1C(F)(F)F [compound 60, 5-((3-(trifluoromethyl)pyridin-2-yl)methyl)-7-(1-(4-(trifluoromethyl)pyridin-3-yl)piperidin-4-yl)pyrido[2,3-b]pyrazin-6(5H)-one] | < 500 |  |  | Non-Active

Now from value to compound:

IC50 [1, 3] [nM] | [Agonist] B-arrestin2 recruitment: Average EC50 (nM) ([2]; at 10 μM) | IC50 [1] [nM] | [Agonist] B-arrestin2 recruitment: Average EC50 (nM) [2] | SMILES
> 100000 | Non-Active at 10 μM |  |  | Cc1ccc2c(c1)nc(C1CCN(c3c(C)cccc3F)CC1)c(=O)n2Cc1nccnc1C(F)(F)F [144B, 3-(1-(2-Fluoro-6-methylphenyl)piperidin-4-yl)-6-methyl-1-((3-(trifluoromethyl)pyrazin-2-yl)methyl)quinoxalin-2(1H)-one]
< 500 | Non-Active at 10 μM |  |  | Cc1cnc2cc(N3CCN(c4c(C)cccc4F)CC3)c(=O)n(Cc3ncccc3C(F)F)c2n1 [compound 140, 5-((3-(Difluoromethyl)pyridin-2-yl)methyl)-7-(4-(2-fluoro-6-methylphenyl)piperazin-1-yl)-3-methylpyrido[2,3-b]pyrazin-6(5H)-one]
< 500 |  |  | Non-Active | Cc1cnc2cc(N3CCN(c4c(C)cccc4F)CC3)c(=O)n(Cc3ncccc3OC(F)(F)F)c2n1 [compound 124, 7-(4-(2-Fluoro-6-methylphenyl)piperazin-1-yl)-3-methyl-5-((3-(trifluoromethoxy)pyridin-2-yl)methyl)pyrido[2,3-b]pyrazin-6(5H)-one]
500 to 5000 | Non-Active at 10 μM |  |  | Cc1cnc2cc(C3CCN(c4c(C)ccc5c4cnn5C)CC3)c(=O)n(Cc3ncccc3C(F)(F)F)c2n1 [compound 185, 7-(1-(1,5-Dimethyl-1H-indazol-4-yl)piperidin-4-yl)-3-methyl-5-((3-(trifluoromethyl)pyridin-2-yl)methyl)pyrido[2,3-b]pyrazin-6(5H)-one]
< 500 | Non-Active at 10 μM |  |  | Cc1cnc2cc([C@H]3CC[C@H](c4c(F)cccc4F)CC3)c(=O)n(Cc3ncccc3OC(F)(F)F)c2n1 [compound 209, 7-((1r,4r)-4-(2,6-Difluorophenyl)cyclohexyl)-3-methyl-5-((3-(trifluoromethoxy)pyridin-2-yl)methyl)pyrido[2,3-b]pyrazin-6(5H)-one]
< 500 | Non-Active at 10 μM |  |  | Cc1cnc2cc([C@H]3CC[C@@H](c4c(C)cccc4F)C3)c(=O)n(Cc3nccnc3C(F)(F)F)c2n1 [197A, 7-((1S,3R)-3-(2-Fluoro-6-methylphenyl)cyclopentyl)-3-methyl-5-((3-(trifluoromethyl)pyrazin-2-yl)methyl)pyrido[2,3-b]pyrazin-6(5H)-one]
500 to 5000 |  |  | Non-Active | Cc1cccc(F)c1N1CCN(c2cc3nccnc3n(Cc3nccnc3C(F)(F)F)c2=O)CC1 [compound 24, 7-(4-(2-Fluoro-6-methylphenyl)piperazin-1-yl)-5-((3-(trifluoromethyl)pyrazin-2-yl)methyl)pyrido[2,3-b]pyrazin-6(5H)-one]

Source: patent US20260317320A1, “C5AR1 ANTAGONISTS AND USES THEREOF” (Vanqua Bio, Inc., priority 2022, published 2026)
